The results in this text go back to patent US8604053B2, “TRPV1 antagonists” (AbbVie Inc., priority 2008, dated 2013).

The target in this test is T1, human TRPV1 (Homo sapiens, UniProt Q8NER1).
T1 construct: expressed in transfected cells; host or cells: HEK293-F cells, transient transfection
The experiment in a line: Acid activation assay, ratiometric calcium imaging. The following applies: HEK293-F cells expressing human TRPV1, Example 56 at 3 μM; for block of TRPV1-mediated increase in intracellular calcium concentration in response to pH 5.5: acid pH 5.5; for block of TRPV1-mediated increase in intracellular calcium concentration in response to capsaicin: capsaicin 1 μM. The class given is cell-based. Here is the method: The differential effects of TRPV1 antagonists on capsaicin- or acid-induced responses were verified by ratiometric calcium imaging. Transiently transfected HEK293-F cells expressing human TRPV1 were incubated with 5 μM Fura-2AM for 30 minutes at 37° C. Intracellular calcium concentration was measured on an imaging system consisting of the X-Cite™ 120 Fluorescence Illumination System (EXFO) and a Digital Camera (C4742-95, Hamamatsu Photonics) connected to an Olympus 1×71 microscope. Through the control of Slide Book 4.2 software, fluorescence was measured during excitation at 340 and 380 nm; the ratio of the fluorescence at both excitation wavelengths (F340/F380) was monitored. D-PBS, pH 7.4 (Invitrogen, catalog no. 14287) was used as the extracellular solution. Acidic buffer was prepared by titrating D-PBS, pH 7.4 with 7 N HCl to pH 5.5. Agonists and antagonists were prepared in the pH 7.4 or 5.5 solutions. Rapid solution switch was achieved by using a ValveLink system.
Over the time 1250-second course, the cells were challenged sequentially with solutions containing Example 56 (3 μM), Example 56 (3 μM) plus capsaicin (1 μM), Example 56 (3 μM) plus acid (pH 5.5), or acid (pH 5.5) alone. The black bars above the traces designate addition and duration of solution applications. Spaces between horizontal bars represent periods in which cells were perfused with D-PBS, pH 7.4 alone. […]

T1 sequence (Q8NER1 whole entry): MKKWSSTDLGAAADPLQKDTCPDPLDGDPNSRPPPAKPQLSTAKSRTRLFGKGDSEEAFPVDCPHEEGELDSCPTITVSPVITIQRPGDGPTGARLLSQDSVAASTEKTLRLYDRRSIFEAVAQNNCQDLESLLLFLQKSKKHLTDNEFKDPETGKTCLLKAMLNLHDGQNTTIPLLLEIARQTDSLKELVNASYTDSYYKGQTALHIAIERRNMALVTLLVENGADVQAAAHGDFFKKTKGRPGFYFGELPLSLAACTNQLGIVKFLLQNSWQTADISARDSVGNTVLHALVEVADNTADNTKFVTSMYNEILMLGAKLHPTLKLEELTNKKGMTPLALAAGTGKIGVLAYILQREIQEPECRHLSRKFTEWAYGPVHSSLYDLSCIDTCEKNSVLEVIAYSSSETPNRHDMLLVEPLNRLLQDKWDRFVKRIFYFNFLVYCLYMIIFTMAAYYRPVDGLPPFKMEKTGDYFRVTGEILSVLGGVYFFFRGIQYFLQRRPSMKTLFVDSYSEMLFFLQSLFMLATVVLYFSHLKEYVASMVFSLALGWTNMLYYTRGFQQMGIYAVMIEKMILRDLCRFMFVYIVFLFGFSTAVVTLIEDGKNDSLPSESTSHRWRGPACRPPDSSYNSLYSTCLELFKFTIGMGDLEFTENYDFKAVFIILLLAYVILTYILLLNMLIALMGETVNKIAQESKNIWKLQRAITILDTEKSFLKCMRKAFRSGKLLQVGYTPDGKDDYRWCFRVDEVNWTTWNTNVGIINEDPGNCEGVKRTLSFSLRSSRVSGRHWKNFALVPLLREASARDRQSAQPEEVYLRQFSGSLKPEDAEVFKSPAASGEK

In the case of “N-[(4R)-2,2-diethyl-8-fluoro-3,4-dihydro-2H-chromen-4-yl]-N-(3-methylisoquinolin-5-yl)urea [Example 62]”, the “block of TRPV1-mediated increase in intracellular calcium concentration in response to pH 5.5” value is given as “did not completely block” and the “block of TRPV1-mediated increase in intracellular calcium concentration in response to capsaicin” value is listed as “completely blocked”.

For “N-[(4R)-2,2-diethyl-6-fluoro-3,4-dihydro-2H-chromen-4-yl]-N-(3-methylisoquinolin-5-yl)urea [Example 56]”, the “block of TRPV1-mediated increase in intracellular calcium concentration in response to pH 5.5” value is “did not completely block” and the “block of TRPV1-mediated increase in intracellular calcium concentration in response to capsaicin” value was “completely blocked”.
